# Assay results published in patent publication US10793567B2, “Bicyclic inhibitors of histone deacetylase” (Rodin Therapeutics, Inc., priority 2017, dated 2020).
# Several values for one entry are separate records, joined by “and”; a condition that tells them apart may be missing. Equal entries are not always repeated. Where two headings read alike, the source gives them in different places.
# How the values were obtained:
# [1] = system: human myeloid progenitors (CFU-GM); test: Myeloid CFU assay (colony forming cell assay, bone marrow); type: cell-based; settings: 14 days in culture
# Method: (§1) Compounds were tested to evaluate the potential effects on human erythroid and myeloid progenitors using colony forming cell assays. Clonogenic progenitors of human erythroid (CFU-E, BFU-E), granulocyte-monocyte (CFU-GM) and multipotential (CFU-GEMM) lineages were assessed in a semi-solid methylcellulose-based media formulation containing rhlL-3 (10 ng/mL), rhGM-SCF (10 ng/mL), rhSCF (50 ng/mL) and Epo (3 U/mL).
# (§2) Normal human bone marrow light density cells derived from normal bone marrow (NorCal Biologics, California), were stored in the gaseous phase of liquid nitrogen (−152° C.) until required for the assay. On the day of the experiment, the cells were thawed rapidly, the contents of each vial was diluted in 10 mL of Iscove's modified Dulbecco's medium containing 10% fetal bovine serum (IMDM+10% FBS) and washed by centrifugation (approximately 1200 r.p.m. for 10 minutes, room temperature). The supernatant was discarded and the cell pellets resuspended in a known volume of IMDM+10% FBS. A cell count (3% glacial acetic acid) and viability assessment (trypan blue exclusion test) was performed for the bone marrow sample.
# (§3) On the day of the experiment, the compounds were dissolved in DMSO to a stock concentration of 10 mM. Serial dilutions were prepared from the stock concentration to achieve concentrations of 2 and 0.4 mM. When added to the methylcellulose-based media at 1:1000 (v/v), the final test concentrations of 10, 2 and 0.4 μM were achieved. Additionally, 5-FU was evaluated at 1.0, 0.1 and 0.01 μg/mL.
# (§4) Clonogenic progenitors of the human erythroid (CFU-E and BFU-E) and myeloid (CFU-GM) lineages were set up in the methylcellulose-based media formulations described above. All compounds were added to the medium to give the final desired concentrations (10, 2 and 0.4 μM). 5-Fluorouracil (Sigma Aldrich) was used as a positive control for progenitor proliferation (inhibition of colony growth) and was introduced to the human bone marrow cultures at 1.0, 0.1, and 0.01 μg/mL. Solvent control cultures (containing no compound but 0.1% DMSO) as well as standard controls (containing no compound and no DMSO) were also initiated.
# (§5) Human myeloid and erythroid progenitor assays were initiated at 2.0×10^4 cells per culture. Following 14 days in culture, myeloid and erythroid colonies were assessed microscopically and scored by trained personnel. The colonies were divided into the following categories based on size and morphology: CFU-E, BFU-E, CFU-GM and CFU-GEMM.
# (§6) The mean±one standard deviation of three replicate cultures was calculated for progenitors of each category (CFU-E, BFU-E, etc.). Two-tailed t-tests were performed to assess if there was a difference in the number of colonies generated between solvent control and treated cultures. Due to the potential subjectivity of colony enumeration, a p value of less than 0.01 is deemed significant. To calculate the concentration of 50% inhibition of colony growth (IC50) for each compound, a dose response curve was generated plotting the log of the compound concentration versus the percentage of control colony growth using XLfit software (IDBS). The concentration of 50% inhibition of colony growth (IC50) was calculated based on the sigmoid curve fit using Dose-Response, One-Site Model formula: y=A+[(B−A)/(1+((C/x)^D))], where A=the initial value (baseline response), B=maximum response, C=center (drug concentration that provokes a response halfway between A and B) and D=slope of the curve at midpoint. Further, plots and additional dose response curves were generated using GraphPad Prism 7.0.
# (§7) Erythroid (CFU-E and BFU-E), myeloid (CFU-GM) and multi-potential (CFU-GEMM) colony enumeration was performed by trained personnel. The distribution of colony types as well as general colony and cellular morphology was analyzed. For statistical analysis colony numbers in compound treated cultures were compared to the solvent control cultures. […]
# [2] = Brain and plasma exposure following IV and PO administration to mice; type: in vivo; settings: for Projected free brain @ 10 mpk / Brain Cmax @ 10 mpk: 10 mg/kg PO; for half-life / clearance: mouse, plasma; for clearance: read-out: IV PK Cl (converted); for brain Cmax exposure, fold higher than comparator 1 / projected free brain concentration, fold higher than comparator 1: comparator 1 data scaled for comparison
# Method: Compounds were dosed in mice at either 10 mg/kg or 30 mg/kg PO, and were dosed at 1 mg/kg IV. Three animals for collection at each time point for plasma via bleeding at 0.25, 0.5, 1, 4, 12 and 24 h. Terminal bleeding for plasma and sampling for brain at 0.25, 0.5, 1, 4, 12 and 24 h (also three animals per brain exposure time point group). Total of six time points for plasma and six time points for brain.
# Plasma: The animal was restrained manually at the designated time points, approximately 150 μL blood/time point was collected into K2EDTA tube via retro orbital puncture or cardiac puncture under anesthesia with Isoflurane. The blood sample was centrifuged (2000 g, 4° C., 5 min) to generate plasma within 30 min after bleeding.
# Brain: At the designated time points, a mid-line incision was made in the animals scalp and the skin was retracted. Using small bone cutters and rongeurs, removed the skull overlying the brain. Removed the brain using a spatula and rinse with cold saline. Placed the brain in screw-top tubes, and then stored the tubes under −70° C. until analysis.
# [3] = system: human erythroid progenitors (CFU-E, BFU-E); test: Erythroid CFU assay (colony forming cell assay, bone marrow); type: cell-based; settings: 14 days in culture
# Method: as §1, §2, §3, §4, §5, §6, §7
# [4] = molecular target: HDAC2 (Homo sapiens (Human), UniProt Q92769); test: HDAC2 enzymatic inhibition assay in SY5Y cell lysate (HDAC-Glo 2); type: cell-based; settings: SH-SY5Y cells, five hours incubation
# Method: SH-SY5Y cells (Sigma) were cultured in Eagle's Modified Essential Medium supplemented with 10% fetal bovine serum and pen/strep. Twenty-four hours prior to compound dosing 20 uL of cells were plated in white 384 well plates at a density of 1,500 cells/well. Compounds were serially diluted in neat DMSO and then diluted 1:100 v/v into media without FBS and mixed. Media was removed from the plated cells and the diluted compounds in serum free media (1% v/v final DMSO) were added and incubated at 37.0 for five hours. Ten uL of HDAC-Glo 2 reagent with 0.1% Triton X-100 was then added, the plate was mixed and allowed to develop at room temperature for 100 minutes. Plates were then read with a Spectramax LMax luminometer employing a 0.4 s integration time. Dose response curves were constructed with normalized data where CI-994 at 100 uM was defined as 100% inhibition and DMSO alone as 0% inhibition.
# [5] = iv, 1 mg/kg, mice, 1 mg/kg IV, read-out: IV PK T1/2 (converted)
# [6] = po, 10 mg/kg, mice, PO, read-out: PO T1/2 (converted)
# Chain of HDAC2 (Q92769 whole entry): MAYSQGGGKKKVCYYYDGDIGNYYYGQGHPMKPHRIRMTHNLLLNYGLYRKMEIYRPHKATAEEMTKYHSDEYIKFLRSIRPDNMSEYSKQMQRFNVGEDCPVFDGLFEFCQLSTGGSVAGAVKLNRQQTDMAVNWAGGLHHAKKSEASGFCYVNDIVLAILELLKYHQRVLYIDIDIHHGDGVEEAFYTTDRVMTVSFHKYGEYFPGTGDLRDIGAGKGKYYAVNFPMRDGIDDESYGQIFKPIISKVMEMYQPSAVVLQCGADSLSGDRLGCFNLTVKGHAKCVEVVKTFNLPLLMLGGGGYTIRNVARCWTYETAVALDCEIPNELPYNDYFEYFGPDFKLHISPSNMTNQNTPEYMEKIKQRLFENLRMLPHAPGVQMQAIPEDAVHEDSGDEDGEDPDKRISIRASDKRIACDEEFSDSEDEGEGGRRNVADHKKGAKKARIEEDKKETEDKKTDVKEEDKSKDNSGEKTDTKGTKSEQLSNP
SMILES,Myeloid % control @ 10 uM dose [1],Projected free brain @ 10 mpk ([2]; mice),Brain Cmax @ 10 mpk ([2]; mice),"half-life [2, 5]","half-life [2, 6]","clearance ([2]; mice, 1 mg/kg IV)",Erythroid % control @ 10 uM dose [3],IC50 [4],"brain Cmax exposure, fold higher than comparator 1 [2]","projected free brain concentration, fold higher than comparator 1 [2]","PO T1/2 ([2]; mice, PO)"
Cc1ncc(-c2ccc(N)c(NC(=O)N3Cc4cn(CC(F)F)nc4C3)n2)s1 [Compound 5],–,0.302 µM,277 ng/g,2.81 h,2.33 h,5.9 mL/min/kg,–,100 to 1000 nM,–,–,–
Cc1cc2c(cn1)CN(C(=O)Nc1nc(-c3cccnc3)ccc1N)C2 [Compound 12],104%,0.386 µM,237 ng/g,0.513 h,3.67 h,29.5 mL/min/kg,93%,100 to 1000 nM,–,–,–
Cc1ncc2c(n1)CN(C(=O)Nc1nc(-c3ccc(F)cc3)ccc1N)C2 [Compound 14],112%,0.403 µM,633 ng/g,2.09 h,3.22 h,14.3 mL/min/kg,53%,100 to 1000 nM,4 fold,4 fold,–
Nc1ccc(-c2ccc(F)cc2)nc1NC(=O)N1Cc2cn(C3COC3)nc2C1 [Compound 1],54%,0.324 µM,636 ng/g,3.11 h,2.05 h,7.02 mL/min/kg,37%,100 to 1000 nM,–,–,–
Cc1ncc2c(n1)CN(C(=O)Nc1nc(-c3ccc(F)s3)ccc1N)C2 [Compound 2],87%,0.438 µM,760 ng/g,0.643 h,1.25 h,67.7 mL/min/kg,40%,1000 to 1500 nM,–,–,–

# Continued, values first:
Myeloid % control @ 10 uM dose [1],Projected free brain @ 10 mpk ([2]; mice),Brain Cmax @ 10 mpk ([2]; mice),"half-life [2, 5]","half-life [2, 6]","clearance ([2]; mice, 1 mg/kg IV)",Erythroid % control @ 10 uM dose [3],IC50 [4],"brain Cmax exposure, fold higher than comparator 1 [2]","projected free brain concentration, fold higher than comparator 1 [2]","PO T1/2 ([2]; mice, PO)",SMILES
89.4%,0.387 µM,526 ng/g,0.737 h,1.48 h,25 mL/min/kg,46.6%,100 to 1000 nM,–,–,–,CCc1ncc2c(n1)CN(C(=O)Nc1nc(-c3cccs3)ccc1N)C2 [Compound 3]
62.8%,0.881 µM and 0.795 µM,1533 ng/g and 1383 ng/g,0.644 h,1.39 h,27.8 mL/min/kg,40.4%,100 to 1000 nM,–,–,1.01 h,COCCn1cc2c(n1)CN(C(=O)Nc1nc(-c3ccc(F)cc3F)ccc1N)C2 [Compound 9]
102%,0.222 µM,279 ng/g,0.628 h,1.27 h,35.2 mL/min/kg,98%,100 to 1000 nM,–,–,–,CCc1cc2c(cn1)CN(C(=O)Nc1nc(-c3cccnc3)ccc1N)C2 [Compound 8]
79.1%,0.568 µM,1241 ng/g,2.07 h,2.54 h,24.8 mL/min/kg,59.6%,1000 to 1500 nM,~7 fold,5 fold,–,CCc1ncc2c(n1)CN(C(=O)Nc1nc(-c3ccc(F)cc3)ccc1N)C2 [Compound 17]
